The source of these data is US20100009352A1, “Method for Modeling a Disease” (priority 2006, published 2010).

The test system of one experiment is PC12-HttQ103 cells. Put plainly: cellular systems biology model of Huntington's Disease, mutant huntingtin-GFP expression. It counts as cell-based, rat. Here is the method: FIG. 10 are example cellular systems biology profiling images for a model of Huntington's Disease (HD). PC12-HttQ103 cells were seeded in 384-well plates +/− NGF (100 ng/ml). At two days post-seeding cells were induced with 200 nM RSL1 +/− NGF (100 ng/ml) for 48 h. Following fixation, cells were stained with Hoechst and with antibodies raised against tubulin and phospho c-Jun. Tubulin was detected with a donkey anti mouse Cy3 conjugated secondary antibody and phospho c-Jun was visualized with a donkey anti rabbit Cy5 conjugated secondary antibody. Images were captured with an HCS instrument and Hoechst-stained nuclei, mutant huntingtin-GFP expression, phospho c-Jun labeled nuclei, and tubulin-stained cells are shown. […]
FIG. 11 is a graph illustrating that mutant huntingtin aggregation correlates with cell loss. […] Images were captured with an HCS instrument and the cell number and % cells with aggregates were determined with standard imaging algorithms. […]
FIG. 14. are graphs illustrating little correlation between aggregate formation and differentiation PC12-Htt-Q103 cells were treated and stained as stated in FIG. 10. Aggregate formation in untreated and NGF-treated populations was measured with standard imaging algorithms. Mean neurite count and mean branch point distance form the cell body was also measured. […]

Another experiment relates to PC12T cells. Briefly: cellular systems biology profile of GFP-Htt aggregate formation with compound treatment. It counts as cell-based. Here is the method: To test if there was an interrelationship between the modulation of the microtubule cytoskeleton and the formation of huntingtin protein (Htt) aggregates, cells were induced to produce fluorescently labeled huntingtin protein (GFP-Htt). Soon thereafter, the same Cells were treated with a set of compounds including several microtubule modulators. Cellular systems biology profiling can be used to define the interrelationships between several cellular features including microtubule cytoskeletal stability, cell cycle regulation, GFP-Htt aggregate formation, and nuclear morphology.
In one embodiment, 7.5×10^+6 PC12T cells were plated into T25 tissue culture flasks and panasterone A was added to a final concentration of 5 μM. After an overnight incubation, the cells were trypsinized and replated onto collagen I coated 384-well microplates at a density of 10000 cells per well in medium containing 1 μM panasterone A (24 h after the first panasterone A treatment began). Cells were treated for 26 h with 14 compounds at 12 concentrations each ranging from <1 nM to 50 μM. At the end of the incubation period, cells were fixed with 3.7% formaldehyde, permeabilized with 0.5% Triton X-100 detergent, and labeled with primary-secondary antibody pairs to measure microtubule stability (α-tubulin) and mitotic events (phospho-histone […]). Cells were also labeled with Hoechst 33342 (5 μg/ml) to provide measurements of cell cycle regulation (DNA content), changes in cell number, and multiple nuclear morphology measurements including chromatin condensation and nuclear size and shape.
To build a cellular systems biology profile of the cellular response to GFP-Htt aggregation and compound treatment, the following example cellular systems biology response profile features can be calculated from responses of cell populations either expressing GFP-Htt or not expressing GFP-Htt that can be separated mathematically from each other and analyzed separately.

SMILES strings stand for the structures.

Turning to `CCc1c(OC)cccc1C(=O)NN(C(=O)c1cc(C)cc(C)c1)C(C)(C)C` [RSL1], the cell number entry in the experiment with PC12-HttQ103 cells (200 nM RSL1, as a function of treatment time) is “decreased”. For the same compound, the “% cells with aggregates” value in the experiment with PC12-HttQ103 cells (200 nM RSL1 induction) came out at 50%.
Turning to `COC(=O)Nc1nc2ccc(C(=O)c3cccs3)cc2[nH]1` [nocodazole], the “compound induced modulation of cell cycle regulation (2 n/4 n distribution ratio)” value in the experiment with PC12T cells (cells with GFP-Htt aggregates versus cells without aggregates, 26 h treatment) is recorded as “less responsive”. For the same compound, in the experiment on PC12T cells (cells with aggregates versus cells without aggregates), the “sensitivity to the microtubule destabilizing activity” value is “greater sensitivity”. Also, the “Nocodazole-induced cell cycle regulation and nuclear morphological changes” value in the experiment on PC12T cells (in cells containing GFP-Htt aggregates) was “partially inhibited”.
